Experimental data taken from the supplement of paper PMC13380429.

How the values were obtained:
Conditions in all cases: 72 h
Caco-2 [1] = assay: cell viability relative to DMSO; higher = less toxic
Calu-3 [2] = assay: as above
HepG2 [3] = assay: as above
U2OS [4] = assay: as above
Caco-2 [5] = assay: relative viability EC50 (midpoint between 100% and the lowest measured viability); higher = less toxic
Calu-3 [6] = assay: as above
HepG2 [7] = assay: as above
U2OS [8] = assay: as above
Caco-2 [9] = assay: drug sensitivity score (DSS) for viability; higher = more toxic; extreme values may be limits of the assay
Calu-3 [10] = assay: as above
HepG2 [11] = assay: as above
U2OS [12] = assay: as above
Vero E6 [13] = assay: cell viability relative to DMSO; higher = less toxic
Vero E6 [14] = assay: relative viability EC50 (midpoint between 100% and the lowest measured viability); higher = less toxic
Vero E6 [15] = assay: drug sensitivity score (DSS) for viability; higher = more toxic; extreme values may be limits of the assay

| SMILES | cell viability (Caco-2 [1]; 1 nM) [%] | cell viability (Caco-2 [1]; 10 nM) [%] | cell viability (Caco-2 [1]; 100 nM) [%] | cell viability (Caco-2 [1]; 1000 nM) [%] | cell viability (Caco-2 [1]; 10000 nM) [%] | cell viability (Calu-3 [2]; 1 nM) [%] | cell viability (Calu-3 [2]; 10 nM) [%] | cell viability (Calu-3 [2]; 100 nM) [%] | cell viability (Calu-3 [2]; 1000 nM) [%] | cell viability (Calu-3 [2]; 10000 nM) [%] | cell viability (HepG2 [3]; 1 nM) [%] | cell viability (HepG2 [3]; 10 nM) [%] | cell viability (HepG2 [3]; 100 nM) [%] | cell viability (HepG2 [3]; 1000 nM) [%] | cell viability (HepG2 [3]; 10000 nM) [%] | cell viability (U2OS [4]; 1 nM) [%] | cell viability (U2OS [4]; 10 nM) [%] | cell viability (U2OS [4]; 100 nM) [%] | cell viability (U2OS [4]; 1000 nM) [%] | cell viability (U2OS [4]; 10000 nM) [%] | relative viability EC50 (Caco-2 [5]) [µM] | relative viability EC50 (Calu-3 [6]) [µM] | relative viability EC50 (HepG2 [7]) [µM] | relative viability EC50 (U2OS [8]) [µM] | drug sensitivity score (Caco-2 [9]) | drug sensitivity score (Calu-3 [10]) | drug sensitivity score (HepG2 [11]) | drug sensitivity score (U2OS [12]) | cell viability (Vero E6 [13]; 1 nM) [%] | cell viability (Vero E6 [13]; 10 nM) [%] | cell viability (Vero E6 [13]; 100 nM) [%] | cell viability (Vero E6 [13]; 1000 nM) [%] | cell viability (Vero E6 [13]; 10000 nM) [%] | relative viability EC50 (Vero E6 [14]) [µM] | drug sensitivity score (Vero E6 [15]) |
| --- | --- | --- | --- | --- | --- | --- | --- | --- | --- | --- | --- | --- | --- | --- | --- | --- | --- | --- | --- | --- | --- | --- | --- | --- | --- | --- | --- | --- | --- | --- | --- | --- | --- | --- | --- |
| CCC(CC)[C@H](NC(C)=O)[C@@H]1[C@H](O)[C@@H](C(=O)O)C[C@H]1NC(=N)N [peramivir] | 98.8 | 101 | 104 | 105 | 102 | 93.3 | 98.3 | 98.1 | 107 | 101 | 110 | 98.6 | 102 | 110 | 98.9 | 103 | 110 | 98.9 | 110 | 104 | > 10 | > 10 | > 10 | > 10 | 0 | 0 | 0 | 0 | – | – | – | – | – | – | – |
| NC(=O)CN1CC(c2ccccc2)CC1=O (stereo not given) [phenylpiracetam] | 104 | 103 | 93.1 | 102 | 91.8 | 103 | 97.3 | 99.5 | 98.5 | 91.7 | 112 | 107 | 104 | 94 | 104 | 99.3 | 102 | 98.1 | 102 | 98.1 | > 10 | > 10 | > 10 | > 10 | 0 | 0 | 0 | 0 | – | – | – | – | – | – | – |
| CC1=CC[C@@H](C(C)(C)O)C[C@@H]1O [sobrepin] | 109 | 121 | 94.4 | 103 | 87.9 | – | – | – | – | – | 109 | 99.6 | 114 | 103 | 110 | – | – | – | – | – | > 10 | – | > 10 | – | 0 | – | 0 | – | 98 | 99.7 | 96.3 | 98.1 | 90.7 | > 10 | 0 |
| C=C(C)[C@@H]1CC[C@]2(C(=O)O)CC[C@]3(C)[C@H](CC[C@@H]4[C@@]5(C)CC[C@H](O)C(C)(C)[C@@H]5CC[C@]43C)[C@@H]12 [betulinic-acid] | 102 | 108 | 92.3 | 112 | 102 | 93.1 | 97.9 | 93 | 106 | 100 | 109 | 97.4 | 114 | 101 | 113 | 101 | 101 | 98 | 99 | 95 | > 10 | > 10 | > 10 | > 10 | 0 | 0 | 0 | 0 | – | – | – | – | – | – | – |
| COCc1c(-c2ccc(NC(=O)Nc3cc(C(F)(F)F)ccc3F)c(F)c2)c2c(N)ncnn2c1CN1CCOCC1 [ACTB-1003] | 105 | 99 | 102 | 78.4 | 32.9 | 101 | 87.5 | 93.9 | 72.1 | 65.2 | 110 | 104 | 91.1 | 18.1 | 2.1 | 97.6 | 97.1 | 101 | 75 | 23.3 | 1.35 | – | 0.386 | 1.34 | 6.8 | 5.2 | 16.2 | 7.8 | 95.7 | 102 | 101 | 106 | 24.8 | 3.57 | 3.7 |
| Sc1ncnc2nc[nH]c12 [mercaptopurine] | 110 | 103 | 109 | 77 | 89.6 | 113 | 91 | 94.3 | 90.8 | 106 | 112 | 115 | 107 | 69.7 | 18.8 | 102 | 101 | 93.4 | 71 | 65.1 | > 10 | > 10 | 1.23 | – | 3.1 | 0 | 8.7 | 5.6 | 103 | 104 | 99.5 | 103 | 70.6 | – | 1.1 |
| CCCC(CCC)C(=O)NCC(N)=O [valrocemide] | 95.6 | 94.1 | 91.5 | 90.9 | 97.6 | – | – | – | – | – | 94.6 | 101 | 95.6 | 102 | 101 | 104 | 101 | 97.7 | 104 | 98.9 | > 10 | – | > 10 | > 10 | 0 | – | 0 | 0 | 97.3 | 104 | 104 | 97.8 | 101 | > 10 | 0 |
| Cc1c(NC(=O)N2CCOCC2)ccc2c1c1ccccc1n2C(C)C [NPY-5RA972] | 92.2 | 106 | 98.7 | 101 | 95.4 | 109 | 89.5 | 105 | 93.5 | 96 | 102 | 98.5 | 97.3 | 118 | 95.5 | 100 | 98.2 | 105 | 98.6 | 97.5 | > 10 | > 10 | > 10 | > 10 | 0 | 0 | 0 | 0 | – | – | – | – | – | – | – |
| CS(=O)(=O)N1CCN(Cc2cc3nc(-c4cccc5[nH]ncc45)nc(N4CCOCC4)c3s2)CC1 [GDC-0941] | – | – | – | – | – | – | – | – | – | – | – | – | – | – | – | – | – | – | – | – | 0.158 | 0.438 | – | 0.775 | 11.6 | 11.8 | 9.2 | 6.9 | – | – | – | – | – | – | 6.5 |
| CC(C)c1ccc(NC(=O)c2cccs2)c(-c2nc3ccccc3[nH]c2=O)c1 [ML281] | 102 | 102 | 96.5 | 102 | 93.5 | – | – | – | – | – | 103 | 106 | 105 | 95.7 | 102 | 111 | 105 | 101 | 102 | 98.3 | > 10 | – | > 10 | > 10 | 0 | – | 0 | 0 | 96.3 | 101 | 97 | 95.5 | 96.1 | > 10 | 0 |
| CC1Nc2ccc(Cl)cc2S(=O)(=O)N1 (stereo not given) [IDRA-21] | 105 | 105 | 95 | 104 | 99 | 87.5 | 92.2 | 102 | 97.4 | 101 | 102 | 93.8 | 97.3 | 98.9 | 98 | 99.3 | 105 | 99.6 | 102 | 98.2 | > 10 | > 10 | > 10 | > 10 | 0 | 0 | 0 | 0 | – | – | – | – | – | – | – |
| NNCCc1ccccc1 [phenelzine] | 88.4 | 100 | 93.4 | 92.6 | 75.1 | – | – | – | – | – | 109 | 92.8 | 84.1 | 120 | 91.4 | 98.4 | 98.7 | 94.6 | 99.8 | 95.1 | > 10 | – | > 10 | > 10 | 1.4 | – | 0 | 0 | 105 | 103 | 101 | 90.3 | 98 | > 10 | 0 |
| O=S(=O)(O)Oc1ccc(C(c2ccc(OS(=O)(=O)O)cc2)c2ccccn2)cc1 [sodium-picosulfate] | 88.4 | 102 | 96.3 | 102 | 106 | 87.6 | 95 | 82.2 | 100 | 93.8 | – | – | – | – | – | 102 | 106 | 97.1 | 104 | 99.1 | > 10 | > 10 | – | > 10 | 0 | 0 | – | 0 | – | – | – | – | – | – | – |
| CC(C)OC(=O)[C@H](C)N[P@](=O)(CO[C@H](C)Cn1cnc2c(N)ncnc21)Oc1ccccc1 [tenofovir-alafenamide] | 99.3 | 100 | 98.2 | 108 | 94.3 | 106 | 97.4 | 112 | 104 | 78.9 | 98.8 | 91.9 | 116 | 89 | 44.6 | 99.4 | 102 | 97.4 | 100 | 95.6 | > 10 | > 10 | 1.75 | > 10 | 0 | 0.5 | 4.8 | 0 | – | – | – | – | – | – | – |
| CCN(CCCCOC(=O)c1ccc(OC)c(OC)c1)C(C)Cc1ccc(OC)cc1 (stereo not given) [mebeverine] | 101 | 96.3 | 97.2 | 90.8 | 83.8 | 95.2 | 98.3 | 101 | 100 | 93.8 | 105 | 112 | 100 | 103 | 91.6 | 102 | 99.4 | 99.1 | 102 | 96.3 | > 10 | > 10 | > 10 | > 10 | 0.6 | 0 | 0 | 0 | – | – | – | – | – | – | – |
| O=c1[nH]c(=O)n([C@H]2C[C@H](O)[C@@H](CO)O2)cc1/C=C/Br [brivudine] | 97 | 111 | 104 | 109 | 100 | – | – | – | – | – | – | – | – | – | – | 94.4 | 98.5 | 94.5 | 104 | 98 | > 10 | – | – | > 10 | 0 | – | – | 0 | – | – | – | – | – | – | – |
| N#CC(=C(/N)Sc1ccccc1N)/C(C#N)=C(/N)Sc1ccccc1N [U-0126] | 100 | 96.8 | 99.3 | 86.4 | 65 | 94.6 | 102 | 100 | 90.6 | 93.5 | 101 | 95.9 | 94.7 | 70.6 | 41 | 98.2 | 104 | 96.9 | 98.3 | 84.3 | – | > 10 | 0.953 | > 10 | 3.4 | 0 | 6.6 | 0.4 | 102 | 99.9 | 97.9 | 88.6 | 80.9 | > 10 | 1.3 |
